Laboratory results as given in US20240228535A1 (priority 2022, published 2024).

What follows are compounds tested against SARS2 coronavirus 3CL protease (Severe acute respiratory syndrome coronavirus 2, UniProt P0DTD1) (assay: biochemical). Details: 5 nM enzyme, 30 min pre-incubation with compound, 15 μM peptide substrate, 4 h at room temperature; read-out: FRET Potency (nM); IC50 values in the SARS2 3CLPro FRET assay.

Point of comparison: `CNC(=O)C(=O)[C@H](C[C@@H]1C[C@@H](C)NC1=O)NC(=O)c1cc(Cl)ccc1NC(=O)OC1CC1` [Example 10, cyclopropyl (4-chloro-2-(((S)-1-((3S,5R)-5-methyl-2-oxopyrrolidin-3-yl)-4-(methylamino)-3,4-dioxobutan-2-yl)carbamoyl)phenyl)carbamate], IC50 3.9 nM. Against it:
- CNC(=O)C(=O)[C@H](C[C@@H]1CCNC1=O)NC(=O)c1cc(Cl)ccc1NC(=O)OC(C)(C)C [Example 142, tert-butyl N-[4-chloro-2-[[(1S)-3-(methylamino)-2,3-dioxo-1-[[(3S)-2-oxopyrrolidin-3-yl]methyl]propyl]carbamoyl]phenyl]carbamate] — 11-fold higher, 41.1 nM
- CC(OC(=O)Nc1ccc(Cl)cc1C(=O)N[C@@H](C[C@@H]1C[C@@H](C)NC1=O)C(=O)C(=O)NC1CC1)C(F)(F)F (stereo partly drawn) [Example 210, (2,2,2-trifluoro-1-methyl-ethyl) N-[4-chloro-2-[[(1S)-3-(cyclopropylamino)-1-[[(3S,5R)-5-methyl-2-oxo-pyrrolidin-3-yl]methyl]-2,3-dioxo-propyl]carbamoyl]phenyl] carbamate] — 2-fold higher, 7.8 nM
- CNC(=O)C(=O)[C@H](C[C@@H]1CCNC1=O)NC(=O)c1cc(F)c(F)cc1NC(=O)OC1CC1 [Example 127, cyclopropyl N-[4,5-difluoro-2-[[(1S)-3-(methylamino)-2,3-dioxo-1-[[(3S)-2-oxopyrrolidin-3-yl]methyl]propyl]carbamoyl]phenyl]carbamate] — 2-fold higher, 7.9 nM
- CNC(=O)C(=O)[C@H](C[C@@H]1C[C@@H](C)NC1=O)NC(=O)c1cc(Cl)ccc1NC(=O)c1cnc(C(F)(F)F)nc1 [Example 215, N-[4-chloro-2-[[(1S)-3-(methylamino)-1-[[(3S,5R)-5-methyl-2-oxo-pyrrolidin-3-yl]methyl]-2,3-dioxo-propyl]carbamoyl]phenyl]-2-(trifluoromethyl)pyrimidine-5-carboxamide] — 2.6-fold higher, 10.1 nM
- O=C(NC1CC1)C(=O)[C@H](C[C@@H]1CCCNC1=O)NC(=O)c1cc(Cl)ccc1NC(=O)c1ccnc(C(F)(F)F)c1 [Example 234, N-[4-chloro-2-[[(1S)-3-(cyclopropylamino)-2,3-dioxo-1-[[(3S)-2-oxo-3-piperidyl]methyl]propyl]carbamoyl]phenyl]-2-(trifluoromethyl)pyridine-4-carboxamide] — 4.4-fold higher, 17.1 nM
- CNC(=O)C(=O)[C@H](C[C@@H]1C[C@@H](C)NC1=O)NC(=O)c1cc(Cl)ccc1NC(=O)C(C)C(F)(F)F (stereo partly drawn) [Example 19, 5-chloro-N-[(1S)-3-(methylamino)-1-[[(3S,5R)-5-methyl-2-oxo-pyrrolidin-3-yl]methyl]-2,3-dioxo-propyl]-2-[(3,3,3-trifluoro-2-methyl-propanoyl)amino]benzamide] — 7.2-fold higher, 28.2 nM
- C[C@@H]1C[C@@H](C[C@H](NC(=O)c2cc(Cl)ccc2NC(=O)C2CC2C(F)(F)F)C(=O)C(=O)NC2CC2)C(=O)N1 (stereo partly drawn) [Example 98, 5-chloro-N-[(1S)-3-(cyclopropylamino)-1-[[(3S,5R)-5-methyl-2-oxo-pyrrolidin-3-yl]methyl]-2,3-dioxo-propyl]-2-[[2-(trifluoromethyl)cyclopropane-carbonyl]amino]benzamide] — 2.4-fold higher, 9.5 nM
- CNC(=O)C(=O)[C@H](C[C@@H]1C[C@@H](C)NC1=O)NC(=O)c1cc(Cl)ccc1NC(=O)C1CC1 [Example 122] — 2.1-fold higher, 8.1 nM
- C[C@@H]1C[C@@H](C[C@H](NC(=O)c2cc(Cl)cnc2NC(=O)C23CC(C(F)(F)F)(C2)C3)C(=O)C(=O)NC2CC2)C(=O)N1 [Example 5, 5-chloro-N—((S)-4-(cyclopropylamino)-1-((3S,5R)-5-methyl-2-oxopyrrolidin-3-yl)-3,4-dioxobutan-2-yl)-2-(3-(trifluoromethyl)bicyclo[1.1.1]pentane-1-carboxamido)nicotinamide] — 2.2-fold higher, 8.7 nM
- CNC(=O)C(=O)[C@H](C[C@@H]1C[C@@H](C)NC1=O)NC(=O)c1cc(Cl)c(F)cc1NC(=O)c1ccc(C(F)(F)F)nc1 [Example 223, N-[4-chloro-5-fluoro-2-[[(1S)-3-(methylamino)-1-[[(3S,5R)-5-methyl-2-oxo-pyrrolidin-3-yl]methyl]-2,3-dioxo-propyl]carbamoyl]phenyl]-6-(trifluoromethyl)pyridine-3-carboxamide] — 2.3-fold higher, 9 nM
- CNC(=O)C(=O)[C@H](C[C@@H]1C[C@@H](C)NC1=O)NC(=O)c1cc(Cl)ccc1NC(=O)c1nccc(C(F)(F)F)n1 [Example 216] — 2.5-fold higher, 9.6 nM
- C[C@@H]1C[C@@H](C[C@H](NC(=O)c2cc(Cl)ccc2NC(=O)[C@@H]2CN(C)C(=O)N2C)C(=O)C(=O)NC2CC2)C(=O)N1 [Example 212, (4S)-N-[4-chloro-2-[[(1S)-3-(cyclopropylamino)-1-[[(3S,5R)-5-methyl-2-oxo-pyrrolidin-3-yl]methyl]-2,3-dioxo-propyl]carbamoyl]phenyl]-1,3-dimethyl-2-oxo-imidazolidine-4-carboxamide] — within 1.5-fold, 5.6 nM
- C[C@@H]1C[C@@H](C[C@H](NC(=O)c2cc(Cl)ccc2NC(=O)c2cccc(C(F)(F)F)n2)C(=O)C(=O)NC2CC2)C(=O)N1 [Example 40] — 2.6-fold higher, 10 nM
- CNC(=O)C(=O)[C@H](C[C@@H]1C[C@@H](C)NC1=O)NC(=O)c1cc(Cl)c(F)cc1NC(=O)C1(CC(F)(F)F)CC1 [Example 214, 5-chloro-4-fluoro-N-[(1S)-3-(methylamino)-1-[[(3S,5R)-5-methyl-2-oxo-pyrrolidin-3-yl]methyl]-2,3-dioxo-propyl]-2-[[1-(2,2,2-trifluoroethyl)cyclopropane-carbonyl]amino]benzamide] — 1.7-fold higher, 6.8 nM
- CNC(=O)C(=O)[C@H](C[C@@H]1C[C@@H](C)NC1=O)NC(=O)c1cc(Cl)ccc1NC(=O)C1(C(F)(F)F)CC1 [Example 34, 5-chloro-N-[(1S)-3-(methylamino)-1-[[(3S,5R)-5-methyl-2-oxo-pyrrolidin-3-yl]methyl]-2,3-dioxo-propyl]-2-[[1-(trifluoromethyl)cyclopropane-carbonyl]amino]benzamide] — 2.9-fold higher, 11.2 nM
- CNC(=O)C(=O)[C@H](C[C@@H]1C[C@@H](C)NC1=O)NC(=O)c1cc(F)ccc1NC(=O)OC [Example 104, methyl N-[4-fluoro-2-[(1S)-3-(methylamino)-1-[[(3S,5R)-5-methyl-2-oxo-pyrrolidin-3-yl]methyl]-2,3-dioxo-propyl]carbamoyl]phenyl] carbamate] — 3.9-fold higher, 15.3 nM
- CNC(=O)C(=O)[C@H](C[C@@H]1C[C@@H](C)NC1=O)NC(=O)c1cc(Cl)ccc1NC(=O)c1ncc(C(F)(F)F)cn1 [Example 217, N-[4-chloro-2-[[(1S)-3-(methylamino)-1-[[(3S,5R)-5-methyl-2-oxo-pyrrolidin-3-yl]methyl]-2,3-dioxo-propyl]carbamoyl]phenyl]-5-(trifluoromethyl)pyrimidine-2-carboxamide] — 1.7-fold higher, 6.7 nM
- CNC(=O)C(=O)[C@H](C[C@@H]1C[C@@H](C)NC1=O)NC(=O)c1nc(Cl)ccc1NC(=O)OC [Example 113] — 330-fold higher, 1290 nM
- CNC(=O)C(=O)[C@H](C[C@@H]1C[C@@H](C)NC1=O)NC(=O)c1cc(Cl)ccc1NC(=O)C1(CC(F)(F)F)CC1 [Example 202, 5-chloro-N-[(1S)-3-(methylamino)-1-[[(3S,5R)-5-methyl-2-oxo-pyrrolidin-3-yl]methyl]-2,3-dioxo-propyl]-2-[[1-(2,2,2-trifluoroethyl)cyclopropane-carbonyl]amino]benzamide] — 3.1-fold higher, 11.9 nM
- CNC(=O)C(=O)[C@H](C[C@@H]1CCNC1=O)NC(=O)c1cc(Cl)ccc1NC(=O)OC(C)C [Example 128, isopropyl N-[4-chloro-2-[[(1S)-3-(methylamino)-2,3-dioxo-1-[[(3S)-2-oxopyrrolidin-3-yl]methyl]propyl]carbamoyl]phenyl]carbamate] — 1.8-fold higher, 7.2 nM
- CNC(=O)C(=O)[C@H](C[C@@H]1C[C@@H](C)NC1=O)NC(=O)c1cc(Cl)ccc1NC(=O)C1CC(F)(F)C1 [Example 21, 5-chloro-2-[(3,3-difluorocyclobutanecarbonyl)amino]-N-[(1S)-3-(methylamino)-1-[[(3S,5R)-5-methyl-2-oxo-pyrrolidin-3-yl]methyl]-2,3-dioxo-propyl]benzamide] — 6.4-fold higher, 24.9 nM
- CNC(=O)C(=O)[C@H](C[C@@H]1CCNC1=O)NC(=O)c1cc(Cl)ccc1NC(=O)C(C)(C)C [Example 126, 5-chloro-2-(2,2-dimethylpropanoylamino)-N-[(1S)-3-(methylamino)-2,3-dioxo-1-[[(3S)-2-oxopyrrolidin-3-yl]methyl]propyl]benzamide] — within 1.5-fold, 3.8 nM
- C[C@@H]1C[C@@H](C[C@H](NC(=O)c2cc(Cl)cc(F)c2NC(=O)C23CC(F)(C2)C3)C(=O)C(=O)NC2CC2)C(=O)N1 [Example 206] — 3.3-fold higher, 12.8 nM
- C[C@@H]1C[C@@H](C[C@H](NC(=O)c2cc(Cl)ccc2NC(=O)[C@@H]2CNC(=O)O2)C(=O)C(=O)NC2CC2)C(=O)N1 [Example 193, (5S)-N-[4-chloro-2-[[(1S)-3-(cyclopropylamino)-1-[[(3S,5R)-5-methyl-2-oxo-pyrrolidin-3-yl]methyl]-2,3-dioxo-propyl]carbamoyl]phenyl]-2-oxo-oxazolidine-5-carboxamide] — within 1.5-fold, 5.2 nM
- CCOC(=O)Nc1ccc(Cl)cc1C(=O)N[C@@H](C[C@@H]1CCNC1=O)C(=O)C(=O)NC [Example 111, ethyl N-[4-chloro-2-[[(1S)-3-(methylamino)-2,3-dioxo-1-[[(3S)-2-oxopyrrolidin-3-yl]methyl]propyl]carbamoyl]phenyl]carbamate] — within 1.5-fold, 5.8 nM
- C[C@@H]1C[C@@H](C[C@H](NC(=O)c2cc(Cl)ccc2NC(=O)CCC(F)(F)F)C(=O)C(=O)NCc2ccncc2)C(=O)N1 [Example 114, 5-chloro-N-[(1S)-1-[[(3S,5R)-5-methyl-2-oxo-pyrrolidin-3-yl]methyl]-2,3-dioxo-3-(4-pyridylmethylamino)propyl]-2-(4,4,4-trifluorobutanoylamino) benzamide] — 4.8-fold higher, 18.9 nM
- C[C@@H]1C[C@@H](C[C@H](NC(=O)c2cc(Cl)ccc2NC(=O)C(F)(F)F)C(=O)C(=O)NC2CC2)C(=O)N1 [Example 177, 5-chloro-N-[(1S)-3-(cyclopropylamino)-1-[[(3S,5R)-5-methyl-2-oxo-pyrrolidin-3-yl]methyl]-2,3-dioxo-propyl]-2-[(2,2,2-trifluoroacetyl)amino] benzamide] — 2.8-fold higher, 10.9 nM
